Experimental data from ChEMBL document CHEMBL3991601, “The target landscape of clinical kinase drugs” (Science, 2017).
Active and inactive are the calls of the source. Rule as the data show it, for most assays here: actives have a measured Kd and inactives only a lower limit.

Legend:
[1] = biological target: Tyrosine-protein kinase ABL1 (Homo sapiens, UniProt P00519)
[2] = biological target: Atypical kinase COQ8A, mitochondrial (Homo sapiens, UniProt Q8NI60)
[3] = biological target: T1, Adenine phosphoribosyltransferase (Homo sapiens, UniProt P07741)
T1 sequence (P07741 whole entry): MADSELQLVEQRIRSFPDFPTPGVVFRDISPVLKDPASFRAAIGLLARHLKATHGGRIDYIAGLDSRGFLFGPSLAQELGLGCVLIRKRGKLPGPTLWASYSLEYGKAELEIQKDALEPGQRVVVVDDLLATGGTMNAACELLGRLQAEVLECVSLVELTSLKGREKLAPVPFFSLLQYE

[4] = biological target: Bone morphogenetic protein receptor type-1A (Homo sapiens, UniProt P36894)
[5] = biological target: Tyrosine-protein kinase BTK (Homo sapiens, UniProt Q06187)
[6] = biological target: Serine/threonine-protein kinase MRCK gamma (Homo sapiens, UniProt Q6DT37)
[7] = biological target: Dual specificity protein kinase CLK2 (Homo sapiens, UniProt P49760)
[8] = biological target: Dual specificity tyrosine-phosphorylation-regulated kinase 1A (Homo sapiens, UniProt Q13627)
Ephrin type-A receptor 2 = Ephrin type-A receptor 2 (Homo sapiens, UniProt P29317)
Ephrin type-A receptor 5 = Ephrin type-A receptor 5 (Homo sapiens, UniProt P54756)
[9] = biological target: Tyrosine-protein kinase Fer (Homo sapiens, UniProt P16591)
Glycine--tRNA ligase = biological target: T2, Glycine--tRNA ligase (Homo sapiens, UniProt P41250)
T2 sequence (P41250 whole entry): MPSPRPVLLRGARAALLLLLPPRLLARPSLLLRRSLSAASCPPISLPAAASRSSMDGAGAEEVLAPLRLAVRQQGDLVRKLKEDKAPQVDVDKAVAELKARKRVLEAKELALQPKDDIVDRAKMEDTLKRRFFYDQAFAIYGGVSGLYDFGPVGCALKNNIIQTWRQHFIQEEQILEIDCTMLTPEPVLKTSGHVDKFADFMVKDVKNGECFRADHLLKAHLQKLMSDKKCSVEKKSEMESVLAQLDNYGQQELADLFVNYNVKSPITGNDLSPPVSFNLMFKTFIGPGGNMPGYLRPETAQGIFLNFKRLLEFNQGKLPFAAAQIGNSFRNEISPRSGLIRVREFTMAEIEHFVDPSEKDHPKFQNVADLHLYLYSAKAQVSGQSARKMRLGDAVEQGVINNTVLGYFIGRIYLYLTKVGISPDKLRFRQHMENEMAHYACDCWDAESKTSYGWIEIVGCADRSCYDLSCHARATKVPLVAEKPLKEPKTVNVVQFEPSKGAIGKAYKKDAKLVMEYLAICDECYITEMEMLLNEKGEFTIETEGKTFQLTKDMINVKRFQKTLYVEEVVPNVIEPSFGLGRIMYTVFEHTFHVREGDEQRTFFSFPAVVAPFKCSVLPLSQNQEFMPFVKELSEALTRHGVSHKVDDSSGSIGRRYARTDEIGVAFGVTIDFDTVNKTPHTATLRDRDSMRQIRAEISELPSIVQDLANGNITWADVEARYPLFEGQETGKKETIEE

[10] = biological target: Dual specificity mitogen-activated protein kinase kinase 1 (Homo sapiens, UniProt Q02750)
[11] = biological target: Protein kinase C beta type (Homo sapiens, UniProt P05771)
Rab-like protein 3 = biological target: T3, Rab-like protein 3 (Homo sapiens, UniProt Q5HYI8)
T3 sequence (Q5HYI8 whole entry): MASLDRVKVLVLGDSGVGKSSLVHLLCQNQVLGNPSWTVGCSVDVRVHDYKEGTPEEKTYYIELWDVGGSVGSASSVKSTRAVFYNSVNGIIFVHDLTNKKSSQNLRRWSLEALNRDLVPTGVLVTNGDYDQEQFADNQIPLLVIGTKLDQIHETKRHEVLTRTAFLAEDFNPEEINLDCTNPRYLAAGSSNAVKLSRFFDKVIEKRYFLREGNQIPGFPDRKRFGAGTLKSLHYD

[12] = biological target: Serine/threonine-protein kinase SIK3 (Homo sapiens, UniProt Q9Y2K2)
[13] = biological target: T4, Serine/threonine-protein kinase TBK1 (Homo sapiens, UniProt Q9UHD2)
T4 sequence (Q9UHD2 whole entry): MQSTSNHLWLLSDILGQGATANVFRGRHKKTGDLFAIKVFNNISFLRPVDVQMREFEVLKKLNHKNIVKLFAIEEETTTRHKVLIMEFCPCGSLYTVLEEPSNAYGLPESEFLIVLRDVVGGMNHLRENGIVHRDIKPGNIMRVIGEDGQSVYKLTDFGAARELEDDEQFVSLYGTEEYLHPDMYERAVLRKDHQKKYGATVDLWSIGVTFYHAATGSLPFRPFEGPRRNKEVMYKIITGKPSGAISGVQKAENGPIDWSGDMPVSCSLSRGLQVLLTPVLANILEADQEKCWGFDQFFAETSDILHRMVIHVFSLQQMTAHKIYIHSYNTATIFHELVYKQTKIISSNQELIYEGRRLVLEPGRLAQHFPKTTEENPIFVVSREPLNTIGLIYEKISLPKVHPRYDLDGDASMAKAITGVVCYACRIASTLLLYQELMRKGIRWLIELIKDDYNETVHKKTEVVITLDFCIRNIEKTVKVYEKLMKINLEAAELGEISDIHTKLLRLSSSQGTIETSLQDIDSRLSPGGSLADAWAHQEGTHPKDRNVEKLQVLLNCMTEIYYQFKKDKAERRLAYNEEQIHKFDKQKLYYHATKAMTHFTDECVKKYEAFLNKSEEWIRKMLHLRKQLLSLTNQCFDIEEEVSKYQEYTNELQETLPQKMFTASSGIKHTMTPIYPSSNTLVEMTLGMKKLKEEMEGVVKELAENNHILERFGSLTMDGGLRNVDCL
Also: in the data inactive means no Kd found up to 30 µM.

Sequence of Atypical kinase COQ8A, mitochondrial (Q8NI60 whole entry): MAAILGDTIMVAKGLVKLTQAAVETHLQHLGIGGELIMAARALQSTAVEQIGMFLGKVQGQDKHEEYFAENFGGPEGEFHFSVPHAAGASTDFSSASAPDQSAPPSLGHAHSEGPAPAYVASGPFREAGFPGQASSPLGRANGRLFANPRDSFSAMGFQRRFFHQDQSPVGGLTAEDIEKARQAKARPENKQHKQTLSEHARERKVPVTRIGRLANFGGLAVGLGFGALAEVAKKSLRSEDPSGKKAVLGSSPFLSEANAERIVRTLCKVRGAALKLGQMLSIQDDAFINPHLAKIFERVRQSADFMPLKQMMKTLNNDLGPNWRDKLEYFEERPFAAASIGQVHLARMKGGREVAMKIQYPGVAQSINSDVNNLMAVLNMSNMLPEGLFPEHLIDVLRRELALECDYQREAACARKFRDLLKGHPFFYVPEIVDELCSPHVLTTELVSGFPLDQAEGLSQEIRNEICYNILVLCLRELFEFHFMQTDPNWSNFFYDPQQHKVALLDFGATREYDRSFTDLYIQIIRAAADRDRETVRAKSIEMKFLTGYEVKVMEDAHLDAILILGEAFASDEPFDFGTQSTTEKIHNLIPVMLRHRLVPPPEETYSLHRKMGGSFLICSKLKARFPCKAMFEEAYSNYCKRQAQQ
Sequence of Tyrosine-protein kinase ABL1 (P00519 whole entry): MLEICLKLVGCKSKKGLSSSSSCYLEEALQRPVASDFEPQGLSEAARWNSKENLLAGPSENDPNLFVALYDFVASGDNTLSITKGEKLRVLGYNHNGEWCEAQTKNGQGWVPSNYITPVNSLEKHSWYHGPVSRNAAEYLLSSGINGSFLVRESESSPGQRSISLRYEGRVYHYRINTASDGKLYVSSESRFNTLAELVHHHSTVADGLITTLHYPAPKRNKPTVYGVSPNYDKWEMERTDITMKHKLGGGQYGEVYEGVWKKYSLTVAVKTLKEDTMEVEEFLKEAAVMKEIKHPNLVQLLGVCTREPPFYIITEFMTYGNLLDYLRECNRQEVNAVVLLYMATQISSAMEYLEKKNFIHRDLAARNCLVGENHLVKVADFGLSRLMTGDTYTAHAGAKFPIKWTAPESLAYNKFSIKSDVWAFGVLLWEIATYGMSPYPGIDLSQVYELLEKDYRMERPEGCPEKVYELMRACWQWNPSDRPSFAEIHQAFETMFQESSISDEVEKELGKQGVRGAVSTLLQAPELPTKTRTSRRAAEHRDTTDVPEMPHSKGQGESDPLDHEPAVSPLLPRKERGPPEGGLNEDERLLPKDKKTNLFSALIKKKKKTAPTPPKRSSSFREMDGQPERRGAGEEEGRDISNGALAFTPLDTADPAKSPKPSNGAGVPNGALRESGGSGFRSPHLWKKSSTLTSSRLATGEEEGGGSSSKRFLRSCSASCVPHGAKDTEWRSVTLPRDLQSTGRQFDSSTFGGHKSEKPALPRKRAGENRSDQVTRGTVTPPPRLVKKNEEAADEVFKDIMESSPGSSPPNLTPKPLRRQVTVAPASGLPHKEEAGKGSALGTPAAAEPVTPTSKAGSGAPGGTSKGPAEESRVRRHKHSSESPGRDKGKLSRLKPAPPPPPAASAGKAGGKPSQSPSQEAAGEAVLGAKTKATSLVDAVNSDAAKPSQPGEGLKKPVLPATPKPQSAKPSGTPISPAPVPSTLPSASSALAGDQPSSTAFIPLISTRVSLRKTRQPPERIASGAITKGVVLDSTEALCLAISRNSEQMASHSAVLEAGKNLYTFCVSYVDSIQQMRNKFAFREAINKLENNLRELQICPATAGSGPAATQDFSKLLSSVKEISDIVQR
Sequence of Ephrin type-A receptor 5 (P54756 whole entry): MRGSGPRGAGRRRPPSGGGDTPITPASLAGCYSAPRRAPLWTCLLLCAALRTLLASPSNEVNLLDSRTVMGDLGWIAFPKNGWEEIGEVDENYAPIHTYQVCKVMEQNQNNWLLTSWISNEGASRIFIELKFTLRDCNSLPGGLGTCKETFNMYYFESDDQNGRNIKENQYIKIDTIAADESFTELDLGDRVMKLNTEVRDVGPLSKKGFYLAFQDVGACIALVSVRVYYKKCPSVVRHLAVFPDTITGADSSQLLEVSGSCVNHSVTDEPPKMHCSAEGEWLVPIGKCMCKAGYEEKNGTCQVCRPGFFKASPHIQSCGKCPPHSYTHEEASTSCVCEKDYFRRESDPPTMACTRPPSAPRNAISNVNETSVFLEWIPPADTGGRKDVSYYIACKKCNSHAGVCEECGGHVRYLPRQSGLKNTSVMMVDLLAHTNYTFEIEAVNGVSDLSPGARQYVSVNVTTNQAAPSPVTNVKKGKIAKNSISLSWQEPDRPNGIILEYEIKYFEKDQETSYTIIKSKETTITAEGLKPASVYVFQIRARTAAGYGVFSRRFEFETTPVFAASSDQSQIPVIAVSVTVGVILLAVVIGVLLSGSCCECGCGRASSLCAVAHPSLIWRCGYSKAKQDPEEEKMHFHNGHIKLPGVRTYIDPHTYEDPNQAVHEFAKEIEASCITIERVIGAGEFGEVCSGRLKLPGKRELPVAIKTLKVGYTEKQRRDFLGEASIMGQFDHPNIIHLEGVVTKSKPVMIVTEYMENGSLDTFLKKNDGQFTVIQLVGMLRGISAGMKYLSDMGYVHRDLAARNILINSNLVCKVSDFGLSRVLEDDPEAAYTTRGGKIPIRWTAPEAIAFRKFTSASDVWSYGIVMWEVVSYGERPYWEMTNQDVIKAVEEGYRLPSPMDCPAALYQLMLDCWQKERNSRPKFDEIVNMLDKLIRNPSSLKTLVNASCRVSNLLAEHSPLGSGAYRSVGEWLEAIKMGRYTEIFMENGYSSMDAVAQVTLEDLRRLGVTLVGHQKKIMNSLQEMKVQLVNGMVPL
Sequence of Protein kinase C beta type (P05771 whole entry): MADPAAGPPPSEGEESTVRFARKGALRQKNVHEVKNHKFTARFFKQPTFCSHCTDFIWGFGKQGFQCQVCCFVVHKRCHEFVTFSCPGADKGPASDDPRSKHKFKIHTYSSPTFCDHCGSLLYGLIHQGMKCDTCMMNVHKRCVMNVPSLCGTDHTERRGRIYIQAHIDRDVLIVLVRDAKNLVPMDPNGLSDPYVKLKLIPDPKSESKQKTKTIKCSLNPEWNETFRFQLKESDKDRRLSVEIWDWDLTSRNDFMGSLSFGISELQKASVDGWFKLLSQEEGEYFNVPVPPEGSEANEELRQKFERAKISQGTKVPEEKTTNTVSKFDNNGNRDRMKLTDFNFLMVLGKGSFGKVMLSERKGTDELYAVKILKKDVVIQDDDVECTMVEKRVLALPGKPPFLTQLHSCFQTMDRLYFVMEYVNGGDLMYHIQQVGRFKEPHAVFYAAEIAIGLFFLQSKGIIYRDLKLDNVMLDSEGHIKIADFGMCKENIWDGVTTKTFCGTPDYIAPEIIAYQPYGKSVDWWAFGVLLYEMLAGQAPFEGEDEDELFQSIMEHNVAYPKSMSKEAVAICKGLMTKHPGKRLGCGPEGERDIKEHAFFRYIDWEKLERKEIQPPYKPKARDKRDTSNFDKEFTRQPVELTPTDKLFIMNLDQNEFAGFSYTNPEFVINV
Sequence of Bone morphogenetic protein receptor type-1A (P36894 whole entry): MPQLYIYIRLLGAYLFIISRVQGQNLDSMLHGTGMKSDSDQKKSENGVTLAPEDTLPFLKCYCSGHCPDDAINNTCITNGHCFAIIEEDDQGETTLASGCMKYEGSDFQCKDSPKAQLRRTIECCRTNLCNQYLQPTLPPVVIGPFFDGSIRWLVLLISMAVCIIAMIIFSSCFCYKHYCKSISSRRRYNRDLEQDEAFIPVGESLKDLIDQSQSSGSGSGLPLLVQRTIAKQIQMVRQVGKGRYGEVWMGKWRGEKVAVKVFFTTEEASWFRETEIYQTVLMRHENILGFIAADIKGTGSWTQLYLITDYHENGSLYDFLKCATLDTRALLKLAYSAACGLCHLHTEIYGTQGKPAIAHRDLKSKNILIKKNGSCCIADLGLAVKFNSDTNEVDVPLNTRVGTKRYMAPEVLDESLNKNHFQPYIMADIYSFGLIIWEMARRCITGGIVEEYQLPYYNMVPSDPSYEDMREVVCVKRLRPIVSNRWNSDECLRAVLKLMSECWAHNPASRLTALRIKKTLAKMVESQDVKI
Sequence of Tyrosine-protein kinase BTK (Q06187 whole entry): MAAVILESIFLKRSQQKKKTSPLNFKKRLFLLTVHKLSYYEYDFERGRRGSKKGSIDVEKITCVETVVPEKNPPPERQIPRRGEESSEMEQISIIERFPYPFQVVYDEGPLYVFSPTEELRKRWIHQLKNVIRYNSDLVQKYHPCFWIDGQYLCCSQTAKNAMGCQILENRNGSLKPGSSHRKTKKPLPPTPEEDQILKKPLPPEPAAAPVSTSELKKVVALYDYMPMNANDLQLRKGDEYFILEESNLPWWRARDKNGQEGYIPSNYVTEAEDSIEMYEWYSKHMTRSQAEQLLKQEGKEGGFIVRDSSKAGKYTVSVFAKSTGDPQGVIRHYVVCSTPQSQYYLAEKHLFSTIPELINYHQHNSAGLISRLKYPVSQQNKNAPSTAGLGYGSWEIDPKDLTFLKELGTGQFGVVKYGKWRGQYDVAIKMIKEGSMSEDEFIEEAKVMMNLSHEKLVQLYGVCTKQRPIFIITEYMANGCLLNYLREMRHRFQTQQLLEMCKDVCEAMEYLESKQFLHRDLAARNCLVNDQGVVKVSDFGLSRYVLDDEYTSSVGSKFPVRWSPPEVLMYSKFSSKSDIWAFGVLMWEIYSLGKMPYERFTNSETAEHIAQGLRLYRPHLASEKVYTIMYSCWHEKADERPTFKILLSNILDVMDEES
Sequence of Dual specificity mitogen-activated protein kinase kinase 1 (Q02750 whole entry): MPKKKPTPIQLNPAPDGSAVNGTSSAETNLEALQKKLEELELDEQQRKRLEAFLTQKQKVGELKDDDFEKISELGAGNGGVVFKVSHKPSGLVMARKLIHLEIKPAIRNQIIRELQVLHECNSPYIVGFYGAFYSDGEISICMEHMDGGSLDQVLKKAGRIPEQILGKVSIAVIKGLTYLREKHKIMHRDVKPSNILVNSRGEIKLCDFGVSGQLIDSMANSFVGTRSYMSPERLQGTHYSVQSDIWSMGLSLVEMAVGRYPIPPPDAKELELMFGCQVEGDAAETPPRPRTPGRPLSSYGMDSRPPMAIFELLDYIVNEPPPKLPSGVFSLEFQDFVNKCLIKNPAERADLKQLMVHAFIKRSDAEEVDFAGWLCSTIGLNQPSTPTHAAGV

| Kd [1] | Kd [2] | Kd [3] | Kd [4] | Kd [5] | Kd [6] | Kd [7] | Kd [8] | Kd (Ephrin type-A receptor 2) | Kd (Ephrin type-A receptor 5) | Kd [9] | Kd (Glycine--tRNA ligase) | Kd [10] | Kd [11] | Kd (Rab-like protein 3) | Kd [12] | Kd [13] | Compound |
| --- | --- | --- | --- | --- | --- | --- | --- | --- | --- | --- | --- | --- | --- | --- | --- | --- | --- |
| > 30 µM (inactive) | > 30 µM (inactive) | > 30 µM (inactive) | > 30 µM (inactive) | > 30 µM (inactive) | > 30 µM (inactive) | > 30 µM (inactive) | > 30 µM (inactive) | > 30 µM (inactive) | > 30 µM (inactive) | > 30 µM (inactive) | > 30 µM (inactive) | > 30 µM (inactive) | > 30 µM (inactive) | > 30 µM (inactive) | > 30 µM (inactive) | > 30 µM (inactive) | O=C1NC(=O)[C@@H](c2cn3c4c(cccc24)CCC3)[C@@H]1c1c[nH]c2ccccc12 [TIVANTINIB] |
| 0.498 µM (active) | > 30 µM (inactive) | > 30 µM (inactive) | > 30 µM (inactive) | > 30 µM (inactive) | > 30 µM (inactive) | > 30 µM (inactive) | 3.22 µM (active) | 0.807 µM (active) | > 30 µM (inactive) | > 30 µM (inactive) | > 30 µM (inactive) | > 30 µM (inactive) | > 30 µM (inactive) | > 30 µM (inactive) | > 30 µM (inactive) | > 30 µM (inactive) | C[C@@H](NC(=O)c1ncnc(N)c1Cl)c1ncc(C(=O)Nc2cc(C(F)(F)F)c(Cl)cn2)s1 [TOVORAFENIB] |
